Source: patent US20040235856A1, “Treatment of incontinence” (Pfizer Inc, priority 2003, published 2004)
Several values for one entry are separate records, joined by “and”; a condition that tells them apart may be missing. Equal entries are not always repeated.

Tests used:
[1] = tested on: ovariectomised, birth traumatised rats; test: Leak point pressure in ovariectomised, birth traumatised female rats; type: in vivo, Sprague Dawley rats
Experimental: In order to evaluate whether the effects of 5-HT2C agonists on urethral function was present in species other than the guinea pig, leak point pressure was measured in the absence and presence of MK-212 in a known model of urethral function in the rat (Lin A. S. et al. (1998) Urology 52:143-51; Sievert K. D. et al. (2001) J Urol. 166, 311-317; Resplande J et al (2002) J Urol. 168, 323-30), namely ovariectomised, birth traumatised rats.
Ovariectomy and simulated birth trauma were carried out on 8 female Sprague Dawley rats as described previously (Lin A. S. et al. (1998) Urology 52:143-51; Sievert K. D. et al. (2001) J Urol. 166, 311-317; Resplande J et al (2002) J Urol. 168, 323-30). Six weeks subsequent to recovery all animals underwent investigation of leak point pressure, initially rats were anaesthetised with halothane (4%), carried in oxygen (3-4L min^−1) and were maintained at an appropriate surgical plane with urethane (25% w/v; 0.5 ml 100 g^−1 body weight). The trachea, a jugular vein and a carotid artery were cannulated for respiratory ventilation, injection of test compound and monitoring of blood pressure, respectively. A midline laporatomy was performed to expose the urinary bladder and a cystometry tube was inserted through a small incision in the dome of the bladder and secured in place. The abdominal wound was closed tightly around the externalised cystometry tube, which, in turn, was connected to an infusion pump and pressure transducer, for filling the bladder and for recording intravesical pressure, respectively. Baseline leak point pressures (LPP) were established by slow elevation of a saline containing bag connected to the bladder and pressure transducer via the cystometry tube. LPP was defined as the bladder pressure at the point where fluid was first noted at the urethral meatus. Between 4 and 7 baseline readings were made before iv bolus administration of MK-212 (0.1 mg kg^−1). Following a 2 min delay to allow for distribution LPP measurements were repeated in an identical manner to that described above, between 3 and 8 measures were taken.

mice = details: subcutaneous administration; only significant at the highest dose tested; cited from earlier work
anaesthetised guinea pig [2] = test: EUS EMG activity during normal bladder filling in anaesthetised guinea pig; type: in vivo
From the text: (§1) In order to explore what subtypes of 5-HT receptors may be involved in enhancing the sacral spinal drive to the EUS, the effects of m-CPP (Sigma Aldrich Product number C-5554), MK-212 (Tocris Cat No 0941), YM-348 (WO 01/83487), Ro 60-0175 (Tocris Cat No 1854), WAY-161503 (Tocris Cat No 1801), and Example 1-N in WO 03/000663, which have been reported to be 5-HT2C receptor agonists, were investigated in an anaesthetised guinea pig model specifically designed to measure urethral continence mechanisms and leak point pressure using two paradigms. Firstly the activity of urethral striated musculature in response to increased abdominal pressure and so the pressure required to induce leak and secondly, the response of urethral striated musculature during normal bladder filling so as to maintain continence, as measured by changes in electromyographic activity of this continence maintaining sphincter.
Experiments were performed in adult female guinea pigs, weighing 620-707 g. All animals were initially anaesthetised with halothane (4%), carried in oxygen (3-4L min^−1) and were maintained at an appropriate surgical plane with urethane (25% w/v; 0.5 ml 100 g^−1 body weight). The trachea, a jugular vein and a carotid artery were cannulated for respiratory ventilation, injection of test compound and monitoring of blood pressure, respectively. A midline laporatomy was performed to expose the urinary bladder and a cystometry tube was inserted through a small incision in the dome of the bladder and secured in place. The abdominal wound was closed tightly around the externalised cystometry tube, which, in turn, was connected to an infusion pump and pressure transducer, for filling the bladder and for recording intravesical pressure, respectively. […]
Following a 30 min post surgery stabilisation period, the bladder was filled at a rate of 150 μl min^−1 with physiological saline (room temperature), until initiation of a micturition reflex or leak was observed. […] Additionally, EUS EMG activity and intravesical pressures were recorded throughout bladder filling. […]

anaesthetised guinea pig [3] = test: Abdominal weight inducing micturition or leak and EUS EMG activity in anaesthetised guinea pig; type: in vivo; details: for % of Control Abdominal Weight Inducing Micturition or Leak: bladder at 75% of threshold volume
From the text: as §1
Experiments were performed in adult female guinea pigs, weighing 620-707 g. All animals were initially anaesthetised with halothane (4%), carried in oxygen (3-4L min^−1) and were maintained at an appropriate surgical plane with urethane (25% w/v; 0.5 ml 100 g^−1 body weight). The trachea, a jugular vein and a carotid artery were cannulated for respiratory ventilation, injection of test compound and monitoring of blood pressure, respectively. A midline laporatomy was performed to expose the urinary bladder and a cystometry tube was inserted through a small incision in the dome of the bladder and secured in place. The abdominal wound was closed tightly around the externalised cystometry tube, which, in turn, was connected to an infusion pump and pressure transducer, for filling the bladder and for recording intravesical pressure, respectively. Electromyographic (EMG) wire leads were inserted into the EUS striated muscle layer opposed to the dorsal surface of the symphysis pubis.
Following a 30 min post surgery stabilisation period, the bladder was filled at a rate of 150 μl min^−1 with physiological saline (room temperature), until initiation of a micturition reflex or leak was observed. Following micturition or leak, the bladder was drained via the externalised cystometry tube. Bladder filling was repeated at least 3 times in order to establish a mean bladder threshold capacity for initiation of micturition or leak. Additionally, EUS EMG activity and intravesical pressures were recorded throughout bladder filling. Subsequently 1 of 2 protocols was carried out.
1. Once a threshold bladder volume, which induced micturition or leak, was established, 75% of this volume was used for the next stage of the experiment. The bladder was filled (150 μl min^−1) to 75% of threshold volume with physiological saline and, through the use of a specially constructed frame, weights were positioned on the ventral surface of the abdomen of the animal just rostral to the position of the bladder. Starting at 50 g, then 60 g and then at increasing increments of 20 g, weights were placed on the animal's abdomen until micturition/leakage of fluid was observed. EUS EMG activity and intravesical pressure were recorded while weights were applied to the abdomen. The main parameters investigated were minimum abdominal weight required to induce micturition or leak at 75% of bladder threshold volume, and maximum EUS EMG activity at micturition or leak. Test drug or vehicle was injected intravenously immediately after the bladder was filled to 75% of threshold volume, and 60-120 sec before applying the first abdominal weight (50 g).
Agonists were tested at doses between 0.1 and 3.0 mg kg^−1. In addition the effect of the reported 5-HT2C selective antagonist SB 242084 (Sigma, Cat-No: S-8061) (1 mg kg^−1) on agonist-induced effects was investigated in some animals.

[4] = 0.1 mg/kg iv bolus, individual animals 1-8
[5] = 0.3 mg kg^-1, filling 150 μl min^-1, FIG. 1b

Structure (SMILES): Clc1cncc(N2CCNCC2)n1 [MK-212]
- animals in which LPP pressure increased ([1]; 0.1 mg kg^-1): 7 of 8
- mean increase in LPP (mean ± standard deviation) ([1]; 0.1 mg kg^-1, N=7): 7.1±2.6 mmHg
- Increase in LPP over baseline [1, 4]: 10.2 mmHg and 5.5 mmHg and 7.0 mmHg and 0.4 mmHg and 3.6 mmHg and 6.0 mmHg and 10.9 mmHg and 6.7 mmHg
- LPP (mean ± SD) after MK-212 [1, 4]: 30.6 (3.8) mmHg and 23.4 (3.4) mmHg and 21.8 (1.7) mmHg and 18.2 (1.5) mmHg and 27.6 (1.5) mmHg and 30.7 (1.2) mmHg and 33.5 (1.6) mmHg and 23.0 (2.6) mmHg

Structure (SMILES): FC(F)(F)c1ccc(N2CCNCC2)nc1Cl [Org-12962, 1-[6-chloro-5-(trifluoromethyl)-2-pyridinyl]piperazine]
- urine wet spot size (mice): reduce urine wet spot size

Structure (SMILES): Cc1cc2c(cc1Cl)N(C(=O)Nc1ccc(Oc3cccnc3C)nc1)CC2 [SB 242084]
- effect of antagonist on agonist-induced effects (anaesthetised guinea pig [2]; 1 mg kg^-1, in those animals tested): abolished the effects of applied 5HT2c agonists

Structure (SMILES): O=C1Nc2cc(Cl)c(Cl)cc2N2CCNCC12 (stereo not shown) [Way 161503]
- EUS EMG activity during normal bladder filling (anaesthetised guinea pig [2]; [5]): potentiated
- bladder volume at which EUS EMG activity increases (anaesthetised guinea pig [2]; [5]): increases in activity occurred at lower bladder volumes than in drug free conditions

Structure (SMILES): Clc1cccc(N2CCNCC2)c1 [m-CPP, m-chlorophenylpiperazine]
- % of Control EUS EMG Activity (anaesthetised guinea pig [3]; 0.3 mg kg^-1 iv.): 110 ± 43 % of Control
- % of Control Abdominal Weight Inducing Micturition or Leak (anaesthetised guinea pig [3]; 0.3 mg kg^-1 iv.): 128 ± 6 % of Control
- % of Control EUS EMG Activity (anaesthetised guinea pig [3]; 1.0 mg kg^-1 iv.): 135 ± 10 % of Control
- % of Control Abdominal Weight Inducing Micturition or Leak (anaesthetised guinea pig [3]; 1.0 mg kg^-1 iv.): 139 ± 12 % of Control
- increase in EUS EMG activity compared with controls (anaesthetised guinea pig [3]; 3.0 mg kg^-1): 56%
- increase of the weight required to induce micturition or leak compared with controls (anaesthetised guinea pig [3]; 3.0 mg kg^-1): 66%
- % of Control EUS EMG Activity (anaesthetised guinea pig [3]; 3.0 mg kg^-1 iv.): 156 ± 18 % of Control
- % of Control Abdominal Weight Inducing Micturition or Leak (anaesthetised guinea pig [3]; 3.0 mg kg^-1 iv.): 166 ± 9 % of Control
